Source: the NIST ThermoML archive (doi:10.1021/je1003065)
± gives the expanded uncertainty stated by the source.

Assay: mn = molality of the nth substance listed, in mol/kg
Settings: Liquid, Vibrating tube method

[Br-].[Li+] [lithium bromide] + CCO
mass density (313.16 K, 69943 kPa, m1 = 2.272): 954.83 ± 1.9 kg/m3 | mass density (313.16 K, 70035 kPa, m1 = 0.2335): 838.62 ± 1.8 kg/m3 | mass density (313.16 K, 80024 kPa, m1 = 2.833): 989.48 ± 2 kg/m3 | mass density (313.16 K, 99649 kPa, m1 = 1.462): 925.34 ± 1.9 kg/m3 | mass density (313.17 K, 1995 kPa, m1 = 3.368): 968.15 ± 1.9 kg/m3 | mass density (313.17 K, 5344 kPa, m1 = 3.368): 970.84 ± 1.9 kg/m3 | mass density (313.17 K, 10286 kPa, m1 = 3.368): 974.66 ± 1.9 kg/m3 | mass density (313.17 K, 19807 kPa, m1 = 3.368): 981.61 ± 2 kg/m3 | mass density (313.17 K, 29957 kPa, m1 = 3.368): 988.47 ± 2 kg/m3 | mass density (313.17 K, 40021 kPa, m1 = 2.833): 967.43 ± 1.9 kg/m3 | mass density (313.17 K, 40159 kPa, m1 = 3.368): 994.86 ± 2 kg/m3 | mass density (313.17 K, 49914 kPa, m1 = 3.368): 1000.58 ± 2 kg/m3 | mass density (313.17 K, 80160 kPa, m1 = 2.272): 960.11 ± 1.9 kg/m3 | mass density (313.17 K, 89963 kPa, m1 = 2.272): 965.03 ± 1.9 kg/m3 | mass density (313.17 K, 99603 kPa, m1 = 3.368): 1026.1 ± 2.1 kg/m3 | mass density (313.18 K, 59836 kPa, m1 = 3.368): 1006.06 ± 2 kg/m3 | mass density (313.18 K, 69925 kPa, m1 = 3.368): 1011.36 ± 2 kg/m3 | mass density (313.18 K, 89986 kPa, m1 = 3.368): 1021.4 ± 2.1 kg/m3 | mass density (313.18 K, 100029 kPa, m1 = 2.272): 969.91 ± 2 kg/m3 | mass density (313.19 K, 1459 kPa, m1 = 0.5972): 812.65 ± 1.6 kg/m3 | mass density (313.2 K, 79843 kPa, m1 = 3.368): 1016.39 ± 2 kg/m3 | mass density (323.13 K, 5012 kPa, m1 = 0.2335): 784.23 ± 1.6 kg/m3 | mass density (323.13 K, 79954 kPa, m1 = 0.5972): 859.95 ± 1.8 kg/m3 | mass density (323.14 K, 10001 kPa, m1 = 0.2335): 788.63 ± 1.6 kg/m3 | mass density (323.14 K, 19956 kPa, m1 = 2.833): 946.78 ± 1.9 kg/m3 | mass density (323.14 K, 29926 kPa, m1 = 3.368): 981.06 ± 2 kg/m3 | mass density (323.14 K, 39945 kPa, m1 = 2.272): 930.75 ± 1.9 kg/m3 | mass density (323.14 K, 39954 kPa, m1 = 1.462): 885.66 ± 1.8 kg/m3 | mass density (323.14 K, 49912 kPa, m1 = 0.2335): 819.58 ± 1.7 kg/m3 | mass density (323.14 K, 69926 kPa, m1 = 2.833): 977.81 ± 2 kg/m3 | mass density (323.14 K, 70002 kPa, m1 = 1.462): 904.07 ± 1.8 kg/m3 | mass density (323.14 K, 70002 kPa, m1 = 3.368): 1004.85 ± 2 kg/m3 | mass density (323.15 K, 1023 kPa, m1 = 2.833): 931.78 ± 1.9 kg/m3 | mass density (323.15 K, 1026 kPa, m1 = 0.5972): 803.74 ± 1.6 kg/m3 | mass density (323.15 K, 1032 kPa, m1 = 2.272): 901.6 ± 1.8 kg/m3 | mass density (323.15 K, 1032 kPa, m1 = 3.368): 959.14 ± 1.9 kg/m3 | mass density (323.15 K, 1035 kPa, m1 = 1.462): 855.48 ± 1.7 kg/m3 | mass density (323.15 K, 1203 kPa, m1 = 0.9499): 825.48 ± 1.7 kg/m3 | mass density (323.15 K, 2012 kPa, m1 = 0.2335): 781.53 ± 1.6 kg/m3 | mass density (323.15 K, 5014 kPa, m1 = 3.368): 962.48 ± 1.9 kg/m3 | mass density (323.15 K, 5021 kPa, m1 = 0.5972): 807.24 ± 1.6 kg/m3 | mass density (323.15 K, 5021 kPa, m1 = 2.833): 935.15 ± 1.9 kg/m3 | mass density (323.15 K, 5024 kPa, m1 = 2.272): 905.02 ± 1.8 kg/m3 | mass density (323.15 K, 5106 kPa, m1 = 1.462): 859.08 ± 1.7 kg/m3 | mass density (323.15 K, 5451 kPa, m1 = 0.9499): 829.11 ± 1.7 kg/m3 | mass density (323.15 K, 9995 kPa, m1 = 2.833): 939.18 ± 1.9 kg/m3 | mass density (323.15 K, 10002 kPa, m1 = 2.272): 909.13 ± 1.8 kg/m3 | mass density (323.15 K, 10023 kPa, m1 = 0.5972): 811.53 ± 1.6 kg/m3 | mass density (323.15 K, 10026 kPa, m1 = 0.9499): 832.95 ± 1.7 kg/m3 | mass density (323.15 K, 10065 kPa, m1 = 1.462): 863.3 ± 1.7 kg/m3 | mass density (323.15 K, 19957 kPa, m1 = 0.9499): 840.97 ± 1.7 kg/m3 | mass density (323.15 K, 19957 kPa, m1 = 3.368): 974.07 ± 1.9 kg/m3 | mass density (323.15 K, 20023 kPa, m1 = 0.2335): 797.12 ± 1.6 kg/m3 | mass density (323.15 K, 29784 kPa, m1 = 2.833): 953.72 ± 1.9 kg/m3 | mass density (323.15 K, 29928 kPa, m1 = 0.9499): 848.61 ± 1.7 kg/m3 | mass density (323.15 K, 29975 kPa, m1 = 1.462): 878.73 ± 1.8 kg/m3 | mass density (323.15 K, 29978 kPa, m1 = 0.5972): 827.54 ± 1.7 kg/m3 | mass density (323.15 K, 29986 kPa, m1 = 2.272): 924.09 ± 1.9 kg/m3 | mass density (323.15 K, 39784 kPa, m1 = 0.9499): 855.75 ± 1.7 kg/m3 | mass density (323.15 K, 39926 kPa, m1 = 0.2335): 812.55 ± 1.7 kg/m3 | mass density (323.15 K, 39984 kPa, m1 = 3.368): 987.61 ± 2 kg/m3 | mass density (323.15 K, 49921 kPa, m1 = 2.272): 937 ± 1.9 kg/m3 | mass density (323.15 K, 49926 kPa, m1 = 1.462): 892.13 ± 1.8 kg/m3 | mass density (323.15 K, 49928 kPa, m1 = 0.9499): 862.68 ± 1.8 kg/m3 | mass density (323.15 K, 50001 kPa, m1 = 0.5972): 841.84 ± 1.7 kg/m3 | mass density (323.15 K, 50021 kPa, m1 = 2.833): 966.58 ± 1.9 kg/m3 | mass density (323.15 K, 59924 kPa, m1 = 3.368): 999.37 ± 2 kg/m3 | mass density (323.15 K, 59926 kPa, m1 = 0.2335): 825.76 ± 1.7 kg/m3 | mass density (323.15 K, 59957 kPa, m1 = 1.462): 898.25 ± 1.8 kg/m3 | mass density (323.15 K, 59986 kPa, m1 = 2.833): 972.34 ± 1.9 kg/m3 | mass density (323.15 K, 60024 kPa, m1 = 0.9499): 869.15 ± 1.8 kg/m3 | mass density (323.15 K, 69794 kPa, m1 = 0.9499): 875 ± 1.8 kg/m3 | mass density (323.15 K, 69794 kPa, m1 = 2.272): 948.43 ± 1.9 kg/m3 | mass density (323.15 K, 69923 kPa, m1 = 0.5972): 854.32 ± 1.8 kg/m3 | mass density (323.15 K, 79923 kPa, m1 = 1.462): 909.56 ± 1.9 kg/m3 | mass density (323.15 K, 79924 kPa, m1 = 0.2335): 837.48 ± 1.8 kg/m3 | mass density (323.15 K, 79926 kPa, m1 = 3.368): 1010.05 ± 2 kg/m3 | mass density (323.15 K, 79935 kPa, m1 = 0.9499): 880.66 ± 1.8 kg/m3 | mass density (323.15 K, 79953 kPa, m1 = 2.272): 953.9 ± 1.9 kg/m3 | mass density (323.15 K, 79956 kPa, m1 = 2.833): 983.13 ± 2 kg/m3 | mass density (323.15 K, 89924 kPa, m1 = 3.368): 1015.15 ± 2 kg/m3 | mass density (323.15 K, 89925 kPa, m1 = 0.9499): 885.81 ± 1.8 kg/m3 | mass density (323.15 K, 89926 kPa, m1 = 2.272): 959.13 ± 1.9 kg/m3 | mass density (323.15 K, 89956 kPa, m1 = 0.2335): 843.04 ± 1.8 kg/m3 | mass density (323.15 K, 89958 kPa, m1 = 2.833): 988.29 ± 2 kg/m3 | mass density (323.15 K, 90021 kPa, m1 = 0.5972): 865.14 ± 1.8 kg/m3 | mass density (323.15 K, 99678 kPa, m1 = 2.833): 993.25 ± 2 kg/m3 | mass density (323.15 K, 99745 kPa, m1 = 0.5972): 869.74 ± 1.9 kg/m3 | mass density (323.15 K, 99956 kPa, m1 = 3.368): 1020.21 ± 2.1 kg/m3 | mass density (323.15 K, 99957 kPa, m1 = 1.462): 920.17 ± 1.9 kg/m3 | mass density (323.15 K, 99965 kPa, m1 = 0.2335): 847.91 ± 1.8 kg/m3 | mass density (323.15 K, 99969 kPa, m1 = 0.9499): 890.57 ± 1.9 kg/m3 | mass density (323.15 K, 99985 kPa, m1 = 2.272): 964.32 ± 2 kg/m3 | mass density (323.16 K, 10058 kPa, m1 = 3.368): 966.55 ± 1.9 kg/m3 | mass density (323.16 K, 19945 kPa, m1 = 0.5972): 819.71 ± 1.7 kg/m3 | mass density (323.16 K, 19956 kPa, m1 = 2.272): 916.87 ± 1.8 kg/m3 | mass density (323.16 K, 20003 kPa, m1 = 1.462): 871.29 ± 1.8 kg/m3 | mass density (323.16 K, 29921 kPa, m1 = 0.2335): 805.03 ± 1.6 kg/m3 | mass density (323.16 K, 39928 kPa, m1 = 2.833): 960.39 ± 1.9 kg/m3 | mass density (323.16 K, 49957 kPa, m1 = 3.368): 993.67 ± 2 kg/m3 | mass density (323.16 K, 60002 kPa, m1 = 2.272): 942.94 ± 1.9 kg/m3 | mass density (323.16 K, 70004 kPa, m1 = 0.2335): 831.8 ± 1.8 kg/m3 | mass density (323.16 K, 89956 kPa, m1 = 1.462): 914.93 ± 1.9 kg/m3 | mass density (323.17 K, 39926 kPa, m1 = 0.5972): 834.87 ± 1.7 kg/m3 | mass density (323.18 K, 59974 kPa, m1 = 0.5972): 848.31 ± 1.8 kg/m3
